Reference: article PMC12111648, “New Dimethoxyaryl-Sesquiterpene Derivatives with Cytotoxic Activity Against MCF-7 Breast Cancer Cells: From Synthesis to Topoisomerase I/II Inhibition and Cell Death Mechanism Studies” (International Journal of Molecular Sciences, 2025)
“Also recorded” adds a separate entry of the source. Like-named read-outs stand apart in the source and are kept apart here.

What was measured:
MCF-7 cells [1] = conditions: cited from earlier work
[2] = system: caspases-3/7 in MCF-7 cells; experiment: Caspase-Glo 3/7 assay; format: cell-based, human; conditions: MCF-7, 50 μM, 24 h, versus control
Protocol: Since ROS levels were increased in the MCF-7 cancer cell line in response to the compounds, it is important to determine whether this effect is associated with the onset of apoptotic cell death. […] Cells were treated with the selected compounds at 50 μM for 24 h, incubated in situ with the Caspase-Glo 3/7 marker assay, and then analyzed in a luminometer.
The activity of caspase 3/7 in MCF-7 cells treated with the compounds was determined using a Caspase-Glo-3/7 Assay kit from Promega (UK). This assay is a homogenous and luminescent method that measures the activity of caspase-3 and -7, which are essential for apoptosis. MCF-7 cells (1 × 10^4 cells per well) were seeded in a 96-well plate and incubated overnight. The cells were then treated for 24 h with the compounds (50 µM) and a blank as a control. After treatment, the Caspase-Glo® 3/7 reagent was prepared according to the manufacturer’s instructions. Specifically, 100 μL of the reagent was added to 100 μL of culture medium containing the treated cells in each well, and the mixture was incubated for 1 h at room temperature in the dark. Luminescence was then measured using a luminometer (Berthold Sirius Single Tube Luminometer). The fold change in caspase activity was calculated by expressing the average luminescence of each treatment as a fold change with respect to the average luminescence of the negative control.
Figure 6 The effect of the compounds on caspases-3/7 activity in cells from the human breast cancer cell line MCF-7. Caspases-3/7 activity was determined in MCF-7 cells following treatment with the compounds (50 μM) for 24 h. The data are reported as the ratio of activity in treated cells vs. the control (1% ethanol), which were arbitrarily assigned a unitary value. * p < 0.05 versus control cells (Ctrl). The data are reported as the mean values ± S.D. of three different experiments with samples in triplicate.

MCF-10 cells [3] = experiment: MTT cytotoxicity assay on non-tumoral MCF-10 cells; format: cell-based, human; conditions: Homo sapiens, MCF10, 48 h incubation, IC50 ± SD, three experiments in triplicate
Protocol: (§1) In this study, we wondered whether semi-synthetic compounds have potential antitumoral properties against BC. Therefore, we were interested in investigating the effect of the compounds on the MCF-7 cell line. Firstly, we studied the effect on cell viability using a colorimetric MTT assay, which was performed to quantify the cytotoxic activity; each compound was evaluated at different concentrations (500−100−20−4−0.8−0.16−0.032−0 µM). Daunorubicin was also used as a positive control for comparison with a reference drug. […] Although the MCF-10 cell line provides a useful selectivity model, it may not fully represent the varying sensitivities of different normal cell types within a multicellular organism. The SI value indicates the ratio of toxicity in mammalian host cells to that in a tumoral cell. The data obtained in response to different concentrations of compounds were used to calculate the IC50 and corresponding SI values, as shown in Table 1.
(§2) The American Type Culture Collection (Rockville, MD, USA) supplied the following experimental cell lines: MCF-7, a human breast cancer cell line, and MCF-10A, a human epithelial breast cell line (ATCC N° CRL-10317). Both cell lines were grown in DMEM-F12 medium containing 10% FCS, 100 U/mL penicillin, 100 μg/mL streptomycin, and 1 mM glutamine. The cells were seeded at a concentration of 100 μL per well at a plating density of 3 × 10^3 cells/well and incubated for 24 h at 37 °C under 5% humidified CO2 to enable attachment. The cells were then treated with varying concentrations of synthesized compounds for […] under the same conditions. The compound stock solution was prepared in DMSO, and the final concentration of DMSO was kept at 0.1%. Control cultures were treated with only 1% ethanol.
(§3) Cells from the MCF-7 and MCF-10 lines were seeded into 96-well plates at a density of 1 × 10^4 per well. After 24 h, the compounds were added at increasing concentrations (500–100–20-4–0.8–0.16–0.032–0 µM), and the cells were incubated at 37 °C in a humidified 5% CO2/95% air mixture for 48 h. Following incubation, the cells were washed twice with PBS, and 100 μL of 0.5 mg/mL MTT solution was added to each well. After 2 h of incubation, the MTT solution was removed, and the formazan crystals were dissolved in 50 μL of DMSO per well. Absorbance was then measured at 570 nm using a microplate ELISA reader. IC50 values, determined from three independent experiments conducted in triplicate, were calculated using SigmaPlot® software (version 11.0). The selectivity index (SI) of each compound in each cell line was determined by calculating the ratio of the IC50 values for MCF-10 and cancer cell lines. Compounds were considered selective if SI values were equal to or greater than 3 [46].

MCF-7 cells [4] = experiment: Intracellular ROS generation (DCFH2-DA, flow cytometry); format: cell-based, human; conditions: MCF-7, compounds at respective IC50, 24 h, versus control
Protocol: An increase in intracellular ROS may be one of the factors that contribute to the cytotoxicity of certain compounds in cancer cell lines. In fact, ROS and mitochondrial damage are often associated with the induction of cell death. […] DCF fluorescence was then measured by flow cytometry. The difference in the percentage of DCF-positive cells between treated and control cells was used to indicate an increase in intracellular ROS, as shown in Figure 4.
Reactive oxygen species (ROS) production was measured using flow cytometry. Cells were treated with compounds (each with respective IC50 values) for 24 h, with untreated cells serving as the negative control and cells treated with 1 µM daunorubicin as the positive control. Following the treatment, intracellular ROS levels were visualized after incubation with 2′,7′-dichlorodihydro-fluorescein diacetate (DCFH2-DA) at a final concentration of 10 μM for the last 30 min of the treatment period. After incubation, the cells were washed with PBS, trypsinized, and centrifuged, and the resulting pellet was resuspended in PBS and immediately examined by flow cytometry.
Figure 4 The effect of the compound’s treatment on intracellular ROS generation. Cells were treated with compounds (respective IC50 values for each compound for 24 h), and intracellular ROS levels were determined in the human cancer cell line MCF-7 by flow cytometry using dichloro-fluorescein diacetate (DCFH2-DA). * p < 0.05 versus control cells (Ctrl). The data represent the means ± S.D. of at least three experiments with triplicate samples.

MCF-7 cells [5] = experiment: Mitochondrial membrane potential (rhodamine 123, flow cytometry); format: cell-based, human; conditions: MCF-7, compounds at respective IC50, 24 h
Protocol: To determine whether the toxic effects of selected sesquiterpenes (10c, 11c, 12c, 13c, and 14c) are due to the production of ROS and subsequent apoptosis, the mitochondrial membrane potential was measured. With this aim, a protocol using rhodamine 123 staining and flow cytometry was established to study the effect of the selected compounds [40]. The accumulation of rhodamine 123 in mitochondria is associated with the maintenance of the electrochemical gradient in mitochondria. Daunorubicin was used as a positive control (C+). The results are presented as the percentage of cells with increased mitochondrial membrane permeability.
Rhodamine 123 (Rho123), a positively charged dye that reacts to voltage changes and enters the mitochondria, was utilized to detect modifications in the mitochondrial membrane potential. The cells were exposed to specific compounds (IC50 values for each compound) for 24 h. Control cells that had not been treated were used as negative control, while cells treated with daunorubicin at a concentration of 1 µM served as the positive control. Following this, the cells were incubated with Rho123 (at a concentration of 1 µM) in darkness for an hour at 37 °C. Afterward, the medium was taken out, and the cells were washed with PBS. The cells were then dissociated using trypsin and collected through centrifugation for 10 min at 1500×g. The supernatant was thrown away, and the cell pellets were resuspended in PBS and analyzed using flow cytometry with the FL1 filter. The results are shown as the percentage of Rho123-stained cells.
Figure 5 The effect of the compound’s treatment on mitochondrial membrane potential. […] The data represent the means ± S.D. of at least three experiments with triplicate samples.

MCF-7 cells [6] = experiment: MTT cytotoxicity assay on MCF-7 cells; format: cell-based, human; conditions: for IC50: Homo sapiens, MCF7, MTT, 48 h incubation, IC50 ± SD, three experiments in triplicate; for Selectivity Index (SI): SI = IC50 on MCF-10 cells/IC50 on MCF-7 cells
Protocol: as §1, §2, §3

human topoisomerase II = experiment: TOP2 DNA relaxation / plasmid linearization assay; format: biochemical; conditions: 20 μM
Protocol: The ability to relax DNA conformations is a central function of topoisomerase enzymes. Several studies have associated some proapoptotic compounds with the ability to inhibit topoisomerase enzymes. The ability of the selected compounds to inhibit TOP1 or TOP2 activity was determined. In this experiment, daunorubicin was used as a positive control for TOP1/2 inhibition, as previously reported. […] It is important to note the potential for cardiotoxicity associated with some TOP2 inhibitors, which highlights the relevance of assessing compound 14c’s interaction with TOP2B. […] Future studies should include assays to evaluate the specific activity of 14c against both TOP2A and TOP2B to provide a more comprehensive safety profile, as isoform-selective TOP2 inhibitors may offer a therapeutic advantage by reducing adverse effects.
Topoisomerase II-mediated DNA cleavage was assessed using a plasmid linearization assay adapted from previously described methods. Supercoiled plasmid DNA (200 ng final concentration) was incubated with purified human topoisomerase II (10 U) in the presence or absence of test agents or a positive control. Reactions were carried out in a total volume of 20 μL, composed of 2 μL of 10× topoisomerase II reaction buffer, an appropriate volume of compound or control, and nuclease-free water. ATP (final concentration adjusted from a 20 mM stock) was freshly added to the reaction buffer immediately prior to use. Reactions were initiated by the addition of topoisomerase II and incubated at 37 °C for 30 min. To terminate the reactions, 2 μL of 10% SDS was added directly to the tubes while still in the 37 °C water bath, followed by the addition of 1.5 μL of 250 mM tetrasodium EDTA (pH 8.0) and 2 μL of proteinase K solution (0.8 mg/mL). […]
Figure 7 The effect of sesquiterpene aryl esters on TOP1- and TOP2-induced DNA relaxation was assessed. (A) The TOP1 inhibition assay evaluated the compounds (10c, 11c, 12c, 13c, and 14c) at a concentration of 20 μM in a DNA relaxation assay. […]

MCF-10 cells [7] = system: MCF-10 cells; design: method as in PMID 25412045; conditions: reference drug; cited from earlier work

mitochondrial membrane permeability (MCF-7 cells [5])	Structure (SMILES)	cytotoxicity of the base sesquiterpene system (MCF-7 cells [1]; as previously reported by our group)	caspases-3/7 activity [2]	IC50 (MCF-10 cells [3])	intracellular ROS levels (DCF fluorescence) (MCF-7 cells [4])	IC50 (MCF-7 cells [6])	Selectivity Index (SI) (MCF-7 cells [6])	IC50 (MCF-7 cells [1]; reference drug)	inhibition of TOP2-induced DNA relaxation (human topoisomerase II)	IC50 (MCF-10 cells [7])
–	CC1=CC[C@H]2C(C)(C)CCC[C@]2(C)[C@H]1CO [(-)-drimenol]	inactive	–	–	–	–	–	–	–	–
did not increase	COc1ccc(C[C@H]2C(C)=CCC3C(C)(C)CCC[C@@]32C)cc1OC (stereo partly drawn) [Compound 11c, (4aS,5S)-5-(3,4-Dimethoxybenzyl)-1,1,4a,6-tetramethyl-1,2,3,4,4a,5,8,8a-octahydronaphthalenene]	–	considerably enhanced	87.7 ± 17.8 µM	significantly increased; also recorded: most effective	13.5 ± 1.8 µM	6.5	–	–	–
did not increase	COc1ccc(C(=O)[C@H]2C(C)=CCC3C(C)(C)CCC[C@@]32C)cc1OC (stereo partly drawn) [Compound 12c, (3,4-Dimethoxyphenyl)((1S,8aS)-2,5,5,8a-tetramethyl-1,4,4a,5,6,7,8,8a-octahydronaphthalen-1-yl)methanone]	–	considerably enhanced	131 ± 29.3 µM	significantly increased	30.1 ± 6.6 µM	4.3	–	–	–
–	COc1cccc2c1C(=O)c1c(O)c3c(c(O)c1C2=O)C[C@@](O)(C(C)=O)C[C@@H]3O[C@H]1C[C@H](N)[C@H](O)[C@H](C)O1 [Daunorubicin, reference compound]	–	–	–	–	–	28	0.33 ± 0.02 µM	modified the TOP2-induced DNA relaxation pattern	9.32 ± 1.01 µM
